Measured values published in ChEMBL document CHEMBL1201862, “PubChem BioAssay data set” (2004).
One block for each compound: values may come before it. Activity calls are given as the source filed them.

How the values were obtained:
[1] = biological target: Potassium voltage-gated channel subfamily KQT member 2 (Rattus norvegicus, UniProt O88943); assay: blockers of KCNQ2 channel current – cell-based, automated electrophysiology, set II, rat KCNQ2, dose response (AID 588637); format: functional
[2] = biological target: T1, ATP-dependent translocase ABCB1 (Homo sapiens, UniProt P08183); assay: inhibition of BCRP-mediated JC-1 efflux – Ig-MXP3 cells, flow cytometry, set 2, dose response (AID 504566); format: functional; settings: read-out: EC50_MICROM_;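 further: flow cytometry median green fluorescence of retained JC-1 dye; potency of efflux pump inhibition measured as rising substrate retention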
T1 sequence (P08183 whole entry): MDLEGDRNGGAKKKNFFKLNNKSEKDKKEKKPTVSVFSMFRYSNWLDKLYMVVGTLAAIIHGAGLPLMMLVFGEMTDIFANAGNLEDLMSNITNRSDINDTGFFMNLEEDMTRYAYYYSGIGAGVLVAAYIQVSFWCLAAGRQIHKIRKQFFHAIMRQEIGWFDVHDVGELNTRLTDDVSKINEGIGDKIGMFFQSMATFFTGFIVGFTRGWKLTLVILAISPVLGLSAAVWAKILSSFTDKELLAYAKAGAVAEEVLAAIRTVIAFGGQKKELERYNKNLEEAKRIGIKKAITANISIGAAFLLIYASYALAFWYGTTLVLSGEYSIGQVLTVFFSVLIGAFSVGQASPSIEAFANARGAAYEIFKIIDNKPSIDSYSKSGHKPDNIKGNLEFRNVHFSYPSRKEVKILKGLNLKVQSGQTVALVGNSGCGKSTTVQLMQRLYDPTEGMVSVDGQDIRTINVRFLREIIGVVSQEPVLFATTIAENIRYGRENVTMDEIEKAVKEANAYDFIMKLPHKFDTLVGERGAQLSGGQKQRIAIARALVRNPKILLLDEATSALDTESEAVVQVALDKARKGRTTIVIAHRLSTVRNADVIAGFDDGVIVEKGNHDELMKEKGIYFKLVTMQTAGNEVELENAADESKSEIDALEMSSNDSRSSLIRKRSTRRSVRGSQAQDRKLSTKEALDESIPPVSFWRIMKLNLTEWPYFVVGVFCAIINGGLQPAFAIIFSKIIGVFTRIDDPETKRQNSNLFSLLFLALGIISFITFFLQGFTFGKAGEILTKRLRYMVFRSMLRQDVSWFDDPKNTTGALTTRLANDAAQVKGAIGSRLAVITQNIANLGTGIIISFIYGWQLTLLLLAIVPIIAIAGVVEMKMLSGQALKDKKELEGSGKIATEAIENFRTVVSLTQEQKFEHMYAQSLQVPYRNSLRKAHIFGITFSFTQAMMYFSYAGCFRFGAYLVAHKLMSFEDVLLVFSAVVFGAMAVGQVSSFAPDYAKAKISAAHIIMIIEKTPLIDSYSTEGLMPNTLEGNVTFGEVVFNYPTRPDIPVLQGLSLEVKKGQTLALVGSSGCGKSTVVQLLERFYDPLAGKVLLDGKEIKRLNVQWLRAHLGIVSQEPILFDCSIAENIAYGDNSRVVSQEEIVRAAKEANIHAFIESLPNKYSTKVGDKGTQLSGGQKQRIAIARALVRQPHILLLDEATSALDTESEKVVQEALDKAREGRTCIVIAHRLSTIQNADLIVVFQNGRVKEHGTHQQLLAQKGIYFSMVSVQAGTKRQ

[3] = biological target: T1, ATP-dependent translocase ABCB1; assay: P-gp JC-1 efflux blockade concentration-response – Jurkat-DNR cells, flow cytometry, set 2, dose response (AID 504569); format: functional; settings: read-out: EC50_MICROM_;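 further: potency of pump inhibitors that raise cellular JC-1 green fluorescence up to the nicardipine level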
[4] = biological target: T2, Corticotropin-releasing factor receptor 2/Corticotropin-releasing factor-binding protein (Homo sapiens, UniProt P24387+Q13324); assay: Dose Response confirmation of uHTS hits for small molecule antagonists of the CRF-binding protein and CRF-R2 receptor complex.; format: functional; settings: read-out: IC50_Mean
T2 sequence (Q13324 whole entry): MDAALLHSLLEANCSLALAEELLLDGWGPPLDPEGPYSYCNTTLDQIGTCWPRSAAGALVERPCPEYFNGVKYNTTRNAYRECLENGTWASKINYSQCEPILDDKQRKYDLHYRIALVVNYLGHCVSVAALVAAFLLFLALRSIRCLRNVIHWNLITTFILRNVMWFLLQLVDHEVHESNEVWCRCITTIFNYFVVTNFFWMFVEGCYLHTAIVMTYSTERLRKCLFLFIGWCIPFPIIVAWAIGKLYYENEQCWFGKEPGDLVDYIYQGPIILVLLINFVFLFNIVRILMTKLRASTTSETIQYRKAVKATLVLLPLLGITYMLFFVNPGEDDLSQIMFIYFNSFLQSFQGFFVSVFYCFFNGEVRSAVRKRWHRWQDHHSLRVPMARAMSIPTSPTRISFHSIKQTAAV
T2 sequence (P24387 whole entry): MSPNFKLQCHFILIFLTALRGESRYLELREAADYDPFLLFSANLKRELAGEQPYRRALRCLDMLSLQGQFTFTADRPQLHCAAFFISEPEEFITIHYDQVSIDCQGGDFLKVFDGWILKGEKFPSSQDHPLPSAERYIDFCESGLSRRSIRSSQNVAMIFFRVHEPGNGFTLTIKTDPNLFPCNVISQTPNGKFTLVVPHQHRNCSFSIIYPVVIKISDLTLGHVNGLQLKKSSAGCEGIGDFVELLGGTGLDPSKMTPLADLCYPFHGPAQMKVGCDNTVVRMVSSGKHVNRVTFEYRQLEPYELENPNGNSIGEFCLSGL

[5] = biological target: T2, Corticotropin-releasing factor receptor 2/Corticotropin-releasing factor-binding protein; assay: activators of CRF receptor 2 with binding protein – uHTS hits, confirmation (AID 602473); format: functional; settings: read-out: EC50_Mean
[6] = blockers of CRF-binding protein–CRF-R2 complex – cell-based, uHTS hits, 384-well, dose response (AID 651639); format: functional, Homo sapiens; settings: read-out: IC50_Mean
[7] = biological target: Melanocortin receptor 4 (Homo sapiens, UniProt P32245); assay: inhibitors of MC4R cAMP signaling – cell-based, TR-FRET, biased antagonists, dose response (AID 602298); format: functional;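 further: antagonist potency against agonist-stimulated cAMP production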
Melanocortin receptor 4, sequence (P32245 whole entry): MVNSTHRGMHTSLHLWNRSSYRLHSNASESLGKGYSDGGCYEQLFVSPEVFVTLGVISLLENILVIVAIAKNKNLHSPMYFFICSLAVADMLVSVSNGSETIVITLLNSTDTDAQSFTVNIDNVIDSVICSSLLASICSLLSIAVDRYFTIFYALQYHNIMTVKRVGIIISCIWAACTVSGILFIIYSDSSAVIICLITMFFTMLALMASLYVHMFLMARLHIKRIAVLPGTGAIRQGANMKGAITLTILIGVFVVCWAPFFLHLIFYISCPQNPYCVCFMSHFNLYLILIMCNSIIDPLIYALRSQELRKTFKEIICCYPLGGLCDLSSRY

[8] = cAMP pathway inhibition in counterscreen cell line – TR-FRET cAMP detection, counter-screen for MC4R biased antagonist project, dose response (AID 602305); format: functional, cell-based;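 further: U2OS cells stimulated with forskolin near its EC80 as the cAMP inducer; potency is for inhibition of forskolin-stimulated cAMP signaling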
[9] = tested on: Vero; assay: viability of Vero cells under compound – cytotoxicity control for flavivirus capping enzyme inhibitors (AID 588742); format: functional; settings: Chlorocebus sabaeus
[10] = biological target: Genome polyprotein (dengue virus type 2, UniProt P29990); assay: flavivirus cap methylation enzyme inhibition – biochemical, confirmation dose response, primary screen (AID 588689); format: functional
Genome polyprotein, sequence (P29990 2492-3391 limits assumed): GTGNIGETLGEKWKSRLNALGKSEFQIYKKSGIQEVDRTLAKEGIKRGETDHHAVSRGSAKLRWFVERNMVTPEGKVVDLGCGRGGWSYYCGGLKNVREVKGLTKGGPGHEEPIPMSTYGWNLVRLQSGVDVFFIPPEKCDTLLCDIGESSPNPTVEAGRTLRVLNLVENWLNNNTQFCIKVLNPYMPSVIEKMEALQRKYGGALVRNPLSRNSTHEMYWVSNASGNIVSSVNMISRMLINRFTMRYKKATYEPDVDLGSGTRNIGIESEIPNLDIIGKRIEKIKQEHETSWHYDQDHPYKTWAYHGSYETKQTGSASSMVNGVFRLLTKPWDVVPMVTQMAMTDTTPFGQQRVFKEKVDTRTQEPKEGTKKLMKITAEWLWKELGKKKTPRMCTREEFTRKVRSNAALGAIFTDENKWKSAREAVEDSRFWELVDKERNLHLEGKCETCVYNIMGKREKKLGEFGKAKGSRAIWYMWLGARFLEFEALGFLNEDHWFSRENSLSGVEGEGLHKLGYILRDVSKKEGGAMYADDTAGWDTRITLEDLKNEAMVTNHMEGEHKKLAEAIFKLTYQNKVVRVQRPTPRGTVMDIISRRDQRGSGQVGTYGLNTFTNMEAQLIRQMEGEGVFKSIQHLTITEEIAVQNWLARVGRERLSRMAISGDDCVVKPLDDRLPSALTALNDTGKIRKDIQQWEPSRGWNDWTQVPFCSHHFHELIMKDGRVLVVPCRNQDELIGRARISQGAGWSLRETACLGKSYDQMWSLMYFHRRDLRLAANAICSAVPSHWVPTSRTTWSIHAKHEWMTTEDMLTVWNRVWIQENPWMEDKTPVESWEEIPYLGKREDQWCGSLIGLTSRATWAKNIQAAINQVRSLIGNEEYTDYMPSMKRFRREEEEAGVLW

[11] = biological target: Ras and Rab interactor 1/Tyrosine-protein kinase ABL1 (Homo sapiens, UniProt P00519+Q13671); format: functional;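 further: biochemical TR-FRET dose-response test measuring inhibition of binding between Rin1 and Abl proteins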
Ras and Rab interactor 1/Tyrosine-protein kinase ABL1, sequence (P00519 whole entry): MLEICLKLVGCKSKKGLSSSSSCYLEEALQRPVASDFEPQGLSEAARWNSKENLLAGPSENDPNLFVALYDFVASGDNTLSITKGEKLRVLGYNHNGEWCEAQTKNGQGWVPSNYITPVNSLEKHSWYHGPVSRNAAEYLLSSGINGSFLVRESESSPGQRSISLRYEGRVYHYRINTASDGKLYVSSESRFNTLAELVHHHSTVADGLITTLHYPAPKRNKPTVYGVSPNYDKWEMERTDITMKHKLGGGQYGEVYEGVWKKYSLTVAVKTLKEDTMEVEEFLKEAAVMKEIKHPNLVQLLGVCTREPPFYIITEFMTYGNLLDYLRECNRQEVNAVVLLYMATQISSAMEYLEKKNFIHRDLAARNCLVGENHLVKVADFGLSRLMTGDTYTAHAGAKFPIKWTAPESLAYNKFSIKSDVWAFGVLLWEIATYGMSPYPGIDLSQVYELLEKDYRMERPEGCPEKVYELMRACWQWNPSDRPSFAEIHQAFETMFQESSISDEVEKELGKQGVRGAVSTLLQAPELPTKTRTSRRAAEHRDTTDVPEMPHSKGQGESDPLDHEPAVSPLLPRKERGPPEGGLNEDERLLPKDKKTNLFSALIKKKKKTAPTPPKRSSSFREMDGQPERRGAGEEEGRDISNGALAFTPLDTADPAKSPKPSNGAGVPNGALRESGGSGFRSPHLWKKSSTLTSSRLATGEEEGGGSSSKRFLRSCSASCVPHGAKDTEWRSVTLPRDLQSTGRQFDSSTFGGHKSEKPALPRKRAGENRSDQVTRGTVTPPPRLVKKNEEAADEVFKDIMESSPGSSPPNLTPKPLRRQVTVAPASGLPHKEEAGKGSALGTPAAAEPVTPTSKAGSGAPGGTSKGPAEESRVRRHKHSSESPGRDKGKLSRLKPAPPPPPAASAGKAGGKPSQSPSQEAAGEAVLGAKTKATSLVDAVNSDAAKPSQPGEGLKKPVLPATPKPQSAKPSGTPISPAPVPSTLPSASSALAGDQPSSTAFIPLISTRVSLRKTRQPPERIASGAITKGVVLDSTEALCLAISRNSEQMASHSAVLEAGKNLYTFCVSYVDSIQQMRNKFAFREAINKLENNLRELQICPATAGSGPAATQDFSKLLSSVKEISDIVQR
Ras and Rab interactor 1/Tyrosine-protein kinase ABL1, sequence (Q13671 whole entry): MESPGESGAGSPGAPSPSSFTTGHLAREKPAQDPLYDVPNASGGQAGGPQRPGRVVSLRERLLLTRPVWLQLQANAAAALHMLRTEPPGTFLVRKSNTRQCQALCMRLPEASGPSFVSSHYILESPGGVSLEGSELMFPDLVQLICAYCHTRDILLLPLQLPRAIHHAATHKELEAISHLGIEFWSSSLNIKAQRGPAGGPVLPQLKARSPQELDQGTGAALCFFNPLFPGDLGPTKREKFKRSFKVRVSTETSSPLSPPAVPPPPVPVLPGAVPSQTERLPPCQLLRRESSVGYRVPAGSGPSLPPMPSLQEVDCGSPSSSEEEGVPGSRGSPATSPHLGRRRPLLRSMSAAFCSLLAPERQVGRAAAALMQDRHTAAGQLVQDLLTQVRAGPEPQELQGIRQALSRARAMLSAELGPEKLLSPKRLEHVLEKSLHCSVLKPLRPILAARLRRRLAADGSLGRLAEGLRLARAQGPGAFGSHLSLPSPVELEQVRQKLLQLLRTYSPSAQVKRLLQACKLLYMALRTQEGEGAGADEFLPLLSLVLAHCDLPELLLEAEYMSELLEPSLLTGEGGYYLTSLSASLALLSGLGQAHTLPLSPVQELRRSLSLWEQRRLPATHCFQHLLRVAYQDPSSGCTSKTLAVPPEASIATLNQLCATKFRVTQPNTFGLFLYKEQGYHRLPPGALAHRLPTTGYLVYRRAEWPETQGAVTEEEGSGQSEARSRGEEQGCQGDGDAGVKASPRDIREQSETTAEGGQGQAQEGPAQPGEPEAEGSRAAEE

SMILES: COc1cccc(-c2nc(CS(=O)(=O)CC(=O)NC3CCCc4ccccc43)c(C)o2)c1 (stereo not drawn)
- IC50 [1]: 0.869 µM (active)

SMILES: Cc1cccc(-c2nc3nc(C)cc(N4CCN(C(=O)c5ccco5)CC4)n3n2)c1
- EC50 [2]: 6 µM (active)
- EC50 [3]: 14.6 µM (active)

SMILES: Sc1nnc(-c2ccc3ccccc3n2)n1-c1cc(Cl)cc(Cl)c1
- IC50 [7]: > 64.6 µM (inactive)
- IC50 [8]: > 64.6 µM (inactive)

SMILES: Cc1cc(C(=O)COc2cc(F)ccc2[N+](=O)[O-])c(C)n1CC1CCCO1 (stereo not drawn)
- IC50 [7]: > 64.6 µM (inactive)
- IC50 [8]: > 64.6 µM (inactive)

More lines, main results first:

- IC50 [4]: 5.3 µM (active)
- EC50 [5]: 31.1 µM (active)
- IC50 [6]: > 20 µM (inactive)
SMILES: CC1(C)C2CC=C(/C=N/NC(=O)c3ccccc3O)C1C2 (stereo not drawn)

- IC50 [10]: 52 µM (active)
- IC50 [11]: 26.8 µM (inactive)
SMILES: CCOc1c(Cl)cc(C(=O)Nc2ccccc2C(=O)O)cc1Cl
- CC50 [9]: > 40 µM (active)
